# Data taken from patent US20230024302A1, “2,3,5-TRISUBSTITUTED PYRAZOLO[1,5-A]PYRIMIDINE COMPOUNDS” (Arcus Biosciences, Inc., priority 2019, published 2023).
# pIC50: −log10 of the molar value.
# Columns and labels:
# PI3Kγ = target: T1, PI3Kγ (Homo sapiens, UniProt P48736); assay: PI3Kγ cellular assay in THP-1 cells (AKT pS473 AlphaLISA); format: cell-based; conditions: Table 1, rhMCP-1 stimulated AKT pS473, read-out: cellular potency (PI3Kγ IC50)
# T1 construct: host or cells: THP-1
# Summary of the method: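 Serum-starved THP-1 cells (1.8×10^5/well, serum-free DMEM) treated with compounds from 4 nM to 30 μM in 2% DMSO, then stimulated and lysed.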
# PI3Kγ (p120γ) = target: T2, PI3Kγ (p120γ) (Homo sapiens, UniProt P48736); assay: Inhibition of PI3K kinase activity (ADP Glo), PI3Kγ; conditions: Table 1, p120γ, read-out: biochemical potency (PI3Kγ IC50)
# T2 construct: purchased Promega V1761
# Summary of the method: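 Recombinant p120γ (8 nM, 2× stock) was preincubated with compound for 1 h at rt in HEPES pH 7.4, NaCl, MgCl2 and 0.05% BSA. Reaction was started with PIP2 (0.1 mg/ml, 2×) and ATP (50 μM, 2×) and ran 60 min at rt. ADP formed was read by ADP-Glo luminescence, and IC50 came from a 4-parameter fit.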
# T2 sequence (P48736 whole entry): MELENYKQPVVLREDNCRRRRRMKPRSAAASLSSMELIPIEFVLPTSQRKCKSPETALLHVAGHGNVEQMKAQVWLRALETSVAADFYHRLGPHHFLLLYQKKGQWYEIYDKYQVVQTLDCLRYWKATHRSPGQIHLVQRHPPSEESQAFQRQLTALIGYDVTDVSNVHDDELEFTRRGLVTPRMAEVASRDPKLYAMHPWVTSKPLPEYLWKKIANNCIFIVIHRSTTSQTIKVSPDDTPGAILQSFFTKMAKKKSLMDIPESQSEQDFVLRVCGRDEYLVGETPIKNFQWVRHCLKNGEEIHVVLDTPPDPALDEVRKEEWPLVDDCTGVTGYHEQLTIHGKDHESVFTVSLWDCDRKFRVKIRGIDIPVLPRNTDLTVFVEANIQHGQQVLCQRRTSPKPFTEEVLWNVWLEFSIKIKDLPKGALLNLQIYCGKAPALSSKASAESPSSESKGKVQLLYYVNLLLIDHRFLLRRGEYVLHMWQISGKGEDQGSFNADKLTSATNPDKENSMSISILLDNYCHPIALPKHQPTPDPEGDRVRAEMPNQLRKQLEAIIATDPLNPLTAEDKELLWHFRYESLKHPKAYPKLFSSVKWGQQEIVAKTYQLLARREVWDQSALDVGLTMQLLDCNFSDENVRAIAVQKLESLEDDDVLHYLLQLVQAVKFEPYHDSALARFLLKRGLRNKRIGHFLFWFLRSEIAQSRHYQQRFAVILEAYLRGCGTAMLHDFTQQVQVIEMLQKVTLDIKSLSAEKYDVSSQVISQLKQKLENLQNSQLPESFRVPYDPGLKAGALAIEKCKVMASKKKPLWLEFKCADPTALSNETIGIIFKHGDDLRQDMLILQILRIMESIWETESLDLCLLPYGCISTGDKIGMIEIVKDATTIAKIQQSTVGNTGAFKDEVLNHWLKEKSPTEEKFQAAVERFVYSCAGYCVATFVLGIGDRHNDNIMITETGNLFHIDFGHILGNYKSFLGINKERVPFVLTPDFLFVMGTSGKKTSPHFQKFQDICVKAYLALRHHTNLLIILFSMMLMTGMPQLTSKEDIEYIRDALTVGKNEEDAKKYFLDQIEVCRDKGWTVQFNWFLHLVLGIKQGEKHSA
# T1 sequence (P48736 whole entry): as above
pIC50 (PI3Kγ),pIC50 (PI3Kγ (p120γ)),Structure (SMILES)
> 7.00,> 7.00,"C[C@@H](C1CC1)N1Cc2cc(-c3ccn4nc(N)c(C(=O)N[C@H]5CC[C@@](C)(O)CC5)c4n3)cc(S(C)(=O)=O)c2C1=O [Example 131, 2-Amino-5-{2-[(1S)-1-cyclopropylethyl]-7-methanesulfonyl-1-oxo-2,3-dihydro-1H-isoindol-5-yl}-N-[cis-4-hydroxy-4-methylcyclohexyl]pyrazolo[1,5-a]pyrimidine-3-carboxamide]"
> 7.00,> 7.00,"C[C@@H](C1CC1)N1Cc2cc(-c3ccn4nc(N)c(C(=O)NC5CC5)c4n3)cc(S(C)(=O)=O)c2C1=O [Example 132, 2-Amino-N-cyclopropyl-5-{2-[(1S)-1-cyclopropylethyl]-7-methanesulfonyl-1-oxo-2,3-dihydro-1H-isoindol-5-yl}pyrazolo[1,5-a]pyrimidine-3-carboxamide]"
> 7.00,> 7.00,"CCS(=O)(=O)c1cc(-c2ccn3nc(N)c(C(=O)NC4CC4)c3n2)cc2c1C(=O)N([C@@H](C)C1CC1)C2 [Example 133, 2-Amino-N-cyclopropyl-5-{2-[(1S)-1-cyclopropylethyl]-7-(ethanesulfonyl)-1-oxo-2,3-dihydro-1H-isoindol-5-yl}pyrazolo[1,5-a]pyrimidine-3-carboxamide]"
> 7.00,> 7.00,"C[C@@H](C1CC1)N1Cc2cc(-c3ccn4nc(N)c(C(=O)NC5CC5)c4n3)cc(S(=O)(=O)CC3CC3)c2C1=O [Example 135, 2-Amino-N-cyclopropyl-5-{2-[(1S)-1-cyclopropylethyl]-7-cyclopropylmethanesulfonyl-1-oxo-2,3-dihydro-1H-isoindol-5-yl}pyrazolo[1,5-a]pyrimidine-3-carboxamide]"
> 7.00,> 7.00,"C[C@@H](C1CC1)N1Cc2cc(-c3ccn4nc(N)c(C(=O)NC5CC5)c4n3)cc(S(=O)(=O)C3CCC3)c2C1=O [Example 136, 2-Amino-5-[7-(cyclobutanesulfonyl)-2-[(1S)-1-cyclopropylethyl]-1-oxo-2,3-dihydro-1H-isoindol-5-yl]-N-cyclopropylpyrazolo[1,5-a]pyrimidine-3-carboxamide]"
> 7.00,> 7.00,"C[C@@H](C1CC1)N1Cc2cc(-c3ccn4nc(N)c(C(=O)NC5CC5)c4n3)cc(S(=O)(=O)C3CCCC3)c2C1=O [Example 137, 2-Amino-5-[7-(cyclopentanesulfonyl)-2-[(1S)-1-cyclopropylethyl]-1-oxo-2,3-dihydro-1H-isoindol-5-yl]-N-cyclopropylpyrazolo[1,5-a]pyrimidine-3-carboxamide]"
> 7.00,> 7.00,"C[C@@H](C1CC1)N1Cc2cc(-c3ccn4nc(N)c(C(=O)NC5CC5)c4n3)cc(S(=O)(=O)C3CCCCC3)c2C1=O [Example 138, 2-Amino-5-[7-(cyclohexanesulfonyl)-2-[(1S)-1-cyclopropylethyl]-1-oxo-2,3-dihydro-1H-isoindol-5-yl]-N-cyclopropylpyrazolo[1,5-a]pyrimidine-3-carboxamide]"
> 7.00,> 7.00,"CNS(=O)(=O)c1cc(-c2ccn3nc(N)c(C(=O)NC4CC4)c3n2)cc2c1C(=O)N([C@@H](C)C(F)(F)F)C2 [Example 139, 2-Amino-N-cyclopropyl-5-[7-(methylsulfamoyl)-1-oxo-2-[(2S)-1,1,1-trifluoropropan-2-yl]-2,3-dihydro-1H-isoindol-5-yl]pyrazolo[1,5-a]pyrimidine-3-carboxamide]"
> 7.00,> 7.00,"CNS(=O)(=O)c1cc(-c2ccn3nc(N)c(C(=O)Nc4cnn(C)c4)c3n2)cc2c1C(=O)N([C@@H](C)C1CC1)C2 [Example 140, 2-Amino-5-{2-[(1S)-1-cyclopropylethyl]-7-(methylsulfamoyl)-1-oxo-2,3-dihydro-1H-isoindol-5-yl}-N-(1-methyl-1H-pyrazol-4-yl)pyrazolo[1,5-a]pyrimidine-3-carboxamide]"
> 7.00,> 7.00,"CNS(=O)(=O)c1cc(-c2ccn3nc(N)c(C(=O)N[C@H]4C[C@H](O)C4)c3n2)cc2c1C(=O)N([C@@H](C)C1CC1)C2 [Example 141, 2-Amino-5-{2-[(1S)-1-cyclopropylethyl]-7-(methylsulfamoyl)-1-oxo-2,3-dihydro-1H-isoindol-5-yl}-N-[trans-3-hydroxycyclobutyl]pyrazolo[1,5-a]pyrimidine-3-carboxamide]"
> 7.00,> 7.00,"CNS(=O)(=O)c1cc(-c2ccn3nc(N)c(C(=O)NC4CC4)c3n2)cc2c1C(=O)N([C@@H](C)C1CC1)C2 [Example 142, 2-Amino-N-cyclopropyl-5-{2-[(1S)-1-cyclopropylethyl]-7-(methylsulfamoyl)-1-oxo-2,3-dihydro-1H-isoindol-5-yl}pyrazolo[1,5-a]pyrimidine-3-carboxamide]"
> 7.00,> 7.00,"CCNS(=O)(=O)c1cc(-c2ccn3nc(N)c(C(=O)NC4CC4)c3n2)cc2c1C(=O)N([C@@H](C)C1CC1)C2 [Example 143, 2-Amino-N-cyclopropyl-5-{2-[(1S)-1-cyclopropylethyl]-7-(ethylsulfamoyl)-1-oxo-2,3-dihydro-1H-isoindol-5-yl}pyrazolo[1,5-a]pyrimidine-3-carboxamide]"
> 7.00,> 7.00,"C[C@@H](C1CC1)N1Cc2cc(-c3ccn4nc(N)c(C(=O)NC5CC5)c4n3)cc(S(=O)(=O)N(C)C)c2C1=O [Example 144, 2-Amino-N-cyclopropyl-5-{2-[(1S)-1-cyclopropylethyl]-7-(dimethylsulfamoyl)-1-oxo-2,3-dihydro-1H-isoindol-5-yl}pyrazolo[1,5-a]pyrimidine-3-carboxamide]"
> 7.00,> 7.00,"C[C@@H](C1CC1)N1Cc2cc(-c3ccn4nc(N)c(C(=O)N[C@H]5CNC(=O)C5)c4n3)cc(O[C@@H]3CCOC3)c2C1=O [Example 145, 2-Amino-5-{2-[(1S)-1-cyclopropylethyl]-1-oxo-7-[(3R)-oxolan-3-yloxy]-2,3-dihydro-1H-isoindol-5-yl}-N-[(3R)-5-oxopyrrolidin-3-yl]pyrazolo[1,5-a]pyrimidine-3-carboxamide]"
> 7.00,> 7.00,"C[C@@H](C1CC1)N1Cc2cc(-c3ccn4nc(N)c(C(=O)NC5CC5)c4n3)cc(O[C@H]3CCOC3)c2C1=O [Example 146, 2-Amino-N-cyclopropyl-5-{2-[(1S)-1-cyclopropylethyl]-1-oxo-7-[(3S)-oxolan-3-yloxy]-2,3-dihydro-1H-isoindol-5-yl}pyrazolo[1,5-a]pyrimidine-3-carboxamide]"
> 7.00,> 7.00,"C[C@@H](C1CC1)N1Cc2cc(-c3ccn4nc(N)c(C(=O)N[C@@H](CO)C5CC5)c4n3)cc(O[C@@H]3CCOC3)c2C1=O [Example 147, 2-Amino-N-[(1R)-1-cyclopropyl-2-hydroxyethyl]-5-{2-[(1S)-1-cyclopropylethyl]-1-oxo-7-[(3R)-oxolan-3-yloxy]-2,3-dihydro-1H-isoindol-5-yl}pyrazolo[1,5-a]pyrimidine-3-carboxamide]"
> 7.00,> 7.00,"C[C@@H](C1CC1)N1Cc2cc(-c3ccn4nc(N)c(C(=O)NC5CC5)c4n3)cc(O[C@@H]3CCOC3)c2C1=O [Example 148, 2-Amino-N-cyclopropyl-5-{2-[(1S)-1-cyclopropylethyl]-1-oxo-7-[(3R)-oxolan-3-yloxy]-2,3-dihydro-1H-isoindol-5-yl}pyrazolo[1,5-a]pyrimidine-3-carboxamide]"
> 7.00,> 7.00,"C[C@@H](C1CC1)N1Cc2cc(-c3ccn4nc(N)c(C(=O)NC5CC5)c4n3)cc(O[C@H]3CC[C@H](O)CC3)c2C1=O [Example 149, 2-Amino-N-cyclopropyl-5-{2-[(1S)-1-cyclopropylethyl]-1-oxo-7-{[(1R,4R)-4-hydroxycyclohexyl]oxy}-2,3-dihydro-1H-isoindol-5-yl}pyrazolo[1,5-a]pyrimidine-3-carboxamide]"
> 7.00,> 7.00,"C[C@@H](C1CC1)N1Cc2cc(-c3ccn4nc(N)c(C(=O)NC5CC5)c4n3)cc(N3CC[C@@H](O)C3)c2C1=O [Example 150, 2-Amino-N-cyclopropyl-5-{2-[(1S)-1-cyclopropylethyl]-7-[(3R)-3-hydroxypyrrolidin-1-yl]-1-oxo-2,3-dihydro-1H-isoindol-5-yl}pyrazolo[1,5-a]pyrimidine-3-carboxamide]"
> 7.00,> 7.00,"C[C@@H](C1CC1)N1Cc2cc(-c3ccn4nc(N)c(C(=O)N[C@H]5CC[C@@](C)(O)CC5)c4n3)cc(N3CC[C@@H](O)C3)c2C1=O [Example 151, 2-Amino-5-{2-[(1S)-1-cyclopropylethyl]-7-[(3R)-3-hydroxypyrrolidin-1-yl]-1-oxo-2,3-dihydro-1H-isoindol-5-yl}-N-[cis-4-hydroxy-4-methylcyclohexyl]pyrazolo[1,5-a]pyrimidine-3-carboxamide]"
> 7.00,> 7.00,"C[C@@H](C1CC1)N1Cc2cc(-c3ccn4nc(N)c(C(=O)NC5CC5)c4n3)cc(N3CC[C@H](O)C3)c2C1=O [Example 152, 2-Amino-N-cyclopropyl-5-{2-[(1S)-1-cyclopropylethyl]-7-[(3S)-3-hydroxypyrrolidin-1-yl]-1-oxo-2,3-dihydro-1H-isoindol-5-yl}pyrazolo[1,5-a]pyrimidine-3-carboxamide]"
> 7.00,> 7.00,"C[C@@H](C1CC1)N1Cc2cc(-c3ccn4nc(N)c(C(=O)N[C@H]5CC[C@](O)(C(F)(F)F)CC5)c4n3)cc(N3CC[C@@H](O)C3)c2C1=O [Example 153, 2-Amino-5-{2-[(1S)-1-cyclopropylethyl]-7-[(3R)-3-hydroxypyrrolidin-1-yl]-1-oxo-2,3-dihydro-1H-isoindol-5-yl}-N-[cis-4-hydroxy-4-(trifluoromethyl)cyclohexyl]pyrazolo[1,5-a]pyrimidine-3-carboxamide]"
